From article PMC3525729 (Bioorganic & medicinal chemistry letters, 2012)
Positions count from the first letter of the chain named. Values belong to the compound of their own block, whether it stands above or below them.

Tests used:
rM5 = target: T1, rM5 (Rattus norvegicus, UniProt P08911); assay: CRC screened in agonist mode, rM5; assay type: cell-based
T1 sequence (P08911 1-531): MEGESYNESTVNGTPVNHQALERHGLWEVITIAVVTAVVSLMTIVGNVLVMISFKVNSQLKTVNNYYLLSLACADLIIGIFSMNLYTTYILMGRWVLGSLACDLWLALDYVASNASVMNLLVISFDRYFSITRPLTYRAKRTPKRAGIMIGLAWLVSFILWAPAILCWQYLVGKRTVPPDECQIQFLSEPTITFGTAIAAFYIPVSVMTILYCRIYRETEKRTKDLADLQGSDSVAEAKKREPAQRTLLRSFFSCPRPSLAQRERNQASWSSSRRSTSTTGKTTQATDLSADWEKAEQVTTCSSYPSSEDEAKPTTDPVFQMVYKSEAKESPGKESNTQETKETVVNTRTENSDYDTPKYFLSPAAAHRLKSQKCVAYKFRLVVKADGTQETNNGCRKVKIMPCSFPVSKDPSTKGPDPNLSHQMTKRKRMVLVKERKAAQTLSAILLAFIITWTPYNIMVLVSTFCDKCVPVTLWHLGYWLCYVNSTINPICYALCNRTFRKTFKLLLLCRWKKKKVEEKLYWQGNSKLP

hM1 = target: T2, hM1 (Homo sapiens, UniProt P11229); details: screened as agonist
T2 sequence (P11229 1-460): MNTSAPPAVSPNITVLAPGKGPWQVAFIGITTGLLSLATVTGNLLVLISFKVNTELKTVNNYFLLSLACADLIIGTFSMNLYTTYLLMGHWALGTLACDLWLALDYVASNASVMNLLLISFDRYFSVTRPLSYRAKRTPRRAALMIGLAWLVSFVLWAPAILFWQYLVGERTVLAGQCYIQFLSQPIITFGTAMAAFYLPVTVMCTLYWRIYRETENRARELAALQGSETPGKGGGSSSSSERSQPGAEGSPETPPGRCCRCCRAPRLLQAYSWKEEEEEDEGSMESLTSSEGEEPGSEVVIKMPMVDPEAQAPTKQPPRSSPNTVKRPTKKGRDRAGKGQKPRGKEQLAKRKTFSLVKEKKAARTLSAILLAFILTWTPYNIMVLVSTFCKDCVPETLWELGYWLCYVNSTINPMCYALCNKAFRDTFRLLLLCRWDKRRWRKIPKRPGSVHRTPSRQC

rM3 = rM3 (Rattus norvegicus, UniProt P08483); assay: CRC screened as antagonist in presence of ACh EC80, rM3; assay type: cell-based; details: antagonist mode
hM2 = target: T3, hM2 (Homo sapiens, UniProt P08172); assay: Human CRC screened as antagonist, hM2; assay type: cell-based; details: ACh EC80
T3 sequence (P08172 1-466): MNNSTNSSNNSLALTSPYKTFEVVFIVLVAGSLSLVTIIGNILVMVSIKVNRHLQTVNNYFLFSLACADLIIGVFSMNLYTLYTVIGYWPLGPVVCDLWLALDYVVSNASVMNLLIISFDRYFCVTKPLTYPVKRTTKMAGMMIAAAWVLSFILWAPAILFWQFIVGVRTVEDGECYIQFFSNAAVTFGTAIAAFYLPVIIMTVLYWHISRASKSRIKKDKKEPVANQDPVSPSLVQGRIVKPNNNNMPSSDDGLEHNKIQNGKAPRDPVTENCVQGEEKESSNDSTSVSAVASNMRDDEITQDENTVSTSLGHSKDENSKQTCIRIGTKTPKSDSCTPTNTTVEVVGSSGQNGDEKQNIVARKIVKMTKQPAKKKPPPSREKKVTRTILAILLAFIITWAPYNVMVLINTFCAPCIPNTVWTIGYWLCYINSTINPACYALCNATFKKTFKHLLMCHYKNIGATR

rM2 = target: T4, rM2 (Rattus norvegicus, UniProt P10980); assay: CRC screened as antagonist in presence of ACh EC80, rM2; assay type: cell-based; details: antagonist mode
T4 sequence (P10980 1-466): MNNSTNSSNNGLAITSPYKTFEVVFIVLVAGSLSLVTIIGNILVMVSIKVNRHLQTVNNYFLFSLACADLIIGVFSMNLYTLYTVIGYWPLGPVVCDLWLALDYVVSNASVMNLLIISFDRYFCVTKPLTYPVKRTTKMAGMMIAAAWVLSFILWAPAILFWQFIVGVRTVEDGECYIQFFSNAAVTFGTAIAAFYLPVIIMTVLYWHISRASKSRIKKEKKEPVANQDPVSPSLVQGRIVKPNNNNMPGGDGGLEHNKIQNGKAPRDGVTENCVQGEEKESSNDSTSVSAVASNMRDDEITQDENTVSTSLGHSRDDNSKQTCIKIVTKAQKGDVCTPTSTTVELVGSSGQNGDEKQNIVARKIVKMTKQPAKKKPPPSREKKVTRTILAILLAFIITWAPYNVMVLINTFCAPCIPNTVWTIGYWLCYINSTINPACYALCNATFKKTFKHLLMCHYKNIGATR

rM4 = target: T5, rM4 (Rattus norvegicus, UniProt P08485); assay: CRC screened as antagonist in presence of ACh EC80, rM4; assay type: cell-based
T5 sequence (P08485 1-478): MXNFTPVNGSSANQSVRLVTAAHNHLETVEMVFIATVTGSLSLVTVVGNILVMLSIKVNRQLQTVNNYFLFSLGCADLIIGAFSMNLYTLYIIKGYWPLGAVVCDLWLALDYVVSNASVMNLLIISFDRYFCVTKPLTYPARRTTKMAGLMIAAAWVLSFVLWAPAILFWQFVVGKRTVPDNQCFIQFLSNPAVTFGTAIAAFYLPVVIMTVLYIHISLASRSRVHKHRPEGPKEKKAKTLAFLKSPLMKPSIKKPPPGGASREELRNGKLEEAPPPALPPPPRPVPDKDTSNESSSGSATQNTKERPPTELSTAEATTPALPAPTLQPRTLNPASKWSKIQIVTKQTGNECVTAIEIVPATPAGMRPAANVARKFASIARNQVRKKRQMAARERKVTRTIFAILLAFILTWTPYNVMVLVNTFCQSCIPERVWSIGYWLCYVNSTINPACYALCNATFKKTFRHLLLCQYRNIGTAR

[1] = cited from earlier work
M1 = target: T6, M1 (Rattus norvegicus, UniProt P08482); assay: M1 agonist screen; assay type: cell-based; details: for M1 activation when screened as an agonist: agonist mode
T6 sequence (P08482 1-460): T2 sequence (P11229 1-460) with A5V, T254S, P309S, R320K, A337G, I413V

Rat M1 = target: T7, Rat M1 (Rattus norvegicus, UniProt P08482); assay: CRC screened as antagonist in presence of ACh EC80, Rat M1; assay type: cell-based; details: antagonist mode
T7 sequence (P08482 1-460): T2 sequence (P11229 1-460) with A5V, T254S, P309S, R320K, A337G, I413V

M4 = target: T8, M4 (Homo sapiens, UniProt P08173); assay: M4 antagonist screen; assay type: cell-based
T8 sequence (P08173 1-479): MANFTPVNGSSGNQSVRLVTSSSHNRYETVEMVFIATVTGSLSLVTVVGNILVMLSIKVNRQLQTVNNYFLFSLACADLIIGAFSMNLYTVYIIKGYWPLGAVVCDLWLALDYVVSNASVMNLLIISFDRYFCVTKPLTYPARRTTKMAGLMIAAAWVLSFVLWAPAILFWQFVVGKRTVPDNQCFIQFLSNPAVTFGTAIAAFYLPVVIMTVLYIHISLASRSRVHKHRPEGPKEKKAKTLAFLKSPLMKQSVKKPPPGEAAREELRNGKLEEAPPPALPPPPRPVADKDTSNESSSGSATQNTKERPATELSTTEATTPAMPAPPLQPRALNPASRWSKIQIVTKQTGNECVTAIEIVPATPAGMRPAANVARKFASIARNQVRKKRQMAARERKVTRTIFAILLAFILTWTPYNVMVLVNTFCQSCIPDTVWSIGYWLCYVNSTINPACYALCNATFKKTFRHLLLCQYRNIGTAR

M5 = target: T9, M5 (Homo sapiens, UniProt P08912); assay: M5 antagonist screen; assay type: cell-based
T9 sequence (P08912 1-532): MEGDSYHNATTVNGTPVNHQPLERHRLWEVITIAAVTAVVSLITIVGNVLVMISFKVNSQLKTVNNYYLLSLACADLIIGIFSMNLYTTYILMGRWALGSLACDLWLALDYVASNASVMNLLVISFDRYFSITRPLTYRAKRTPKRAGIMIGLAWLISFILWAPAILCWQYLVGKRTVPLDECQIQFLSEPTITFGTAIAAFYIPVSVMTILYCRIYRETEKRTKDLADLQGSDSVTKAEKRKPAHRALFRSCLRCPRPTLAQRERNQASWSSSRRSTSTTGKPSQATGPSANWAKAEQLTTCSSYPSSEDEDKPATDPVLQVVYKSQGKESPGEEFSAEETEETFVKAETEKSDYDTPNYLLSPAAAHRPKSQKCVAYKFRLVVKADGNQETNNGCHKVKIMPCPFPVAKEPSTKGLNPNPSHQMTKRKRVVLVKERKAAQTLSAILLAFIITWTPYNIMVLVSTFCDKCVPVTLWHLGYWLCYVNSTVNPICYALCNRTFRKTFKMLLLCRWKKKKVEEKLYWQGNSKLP

Sequence of rM3 (P08483 whole entry): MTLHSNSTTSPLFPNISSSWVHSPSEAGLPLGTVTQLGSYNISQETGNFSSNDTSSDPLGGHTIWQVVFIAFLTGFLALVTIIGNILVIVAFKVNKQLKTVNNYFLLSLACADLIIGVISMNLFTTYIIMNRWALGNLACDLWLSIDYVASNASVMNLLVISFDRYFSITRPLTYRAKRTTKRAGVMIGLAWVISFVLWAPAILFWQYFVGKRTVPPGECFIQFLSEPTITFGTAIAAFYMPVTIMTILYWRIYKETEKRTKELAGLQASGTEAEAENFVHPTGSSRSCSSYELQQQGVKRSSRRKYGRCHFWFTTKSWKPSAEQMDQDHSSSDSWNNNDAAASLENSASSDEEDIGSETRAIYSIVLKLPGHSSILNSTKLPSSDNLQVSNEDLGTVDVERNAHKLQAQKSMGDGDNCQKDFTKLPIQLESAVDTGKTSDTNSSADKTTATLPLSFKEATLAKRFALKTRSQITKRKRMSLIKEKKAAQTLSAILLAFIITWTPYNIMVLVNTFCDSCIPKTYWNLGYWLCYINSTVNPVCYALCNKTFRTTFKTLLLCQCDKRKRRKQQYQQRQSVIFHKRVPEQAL

- Rat M1 % ACh Max (Rat M1): −1.07±1.3 % ACh Max
- Rat M1 pIC50 (Rat M1): 5.20±0.04
- M1 activation when screened as an agonist (M1): neither 9 nor 10 elicited M1 activation
Compound: Cc1ccccc1CN1CCC(N2CC3CC(n4c(=O)[nH]c5ccccc54)CC3C2)CC1 (stereo not shown) [compound 10]

- M1 pEC50 (M1): 5.69±0.08
Compound: CCOC(=O)N1CCC(N2CCC[C@@H](NC(=O)c3cccc(Br)c3)C2)CC1 [compound 14]

- IC50 (M4): > 10 µM
- IC50 (M5): > 10 µM
Compound: CCOC(=O)N1CCC(N2CCC[C@@H](NC(=O)c3ccc(C(F)(F)F)nc3)C2)CC1 [compound 16]

More lines, now with the values behind:

Compound: Cc1ccccc1CN1CCC(N2CCC(n3c(=O)[nH]c4ccccc43)CC2)CC1 [TBPB]
- EC50 (rM5): > 30 µM
- hM1 % ACh Max (hM1): 40 % ACh Max
- rM3 pIC50 (rM3): 5.26
- hM2 pIC50 (hM2): 5.46
- rM2 pIC50 (rM2): 5.89

Compound: Cc1ccccc1CN1CCC(N2CCC(n3c(=O)[nH]c4ccccc43)C(F)C2)CC1 (stereo not shown) [compound 9]
- IC50 (rM4): > 10 µM
- rM4 % ACh Max (rM4; antagonist mode, ACh EC80): 26.6±3.4 % ACh Max
- rM4 pIC50 (rM4; antagonist mode, ACh EC80): 5.29±0.09
- pKa of the central piperidine nitrogen atom [1]: 9.4
- M1 activation when screened as an agonist (M1): neither 9 nor 10 elicited M1 activation
